Experimental findings from ChEMBL document CHEMBL3272271, “Folate antagonists. 13. 2,4-Diamino-6-](alpha,alpha,alpha-trifluoro-m-tolyl)thio]quinazoline and related 2,4-diamino-6-[(phenyl- and naphthyl)thio]quinazolines, a unique class of antimetabolites with extraordinary antimalarial and antibacterial effects” (J Med Chem, 1978) are described below.

Series [1] relates to Plasmodium berghei. Description: Antimalarial activity against Plasmodium berghei infected in mouse assessed as increase in mean survival days of host at 80 mg/kg, sc administered 72 hrs after infection relative to control. As to conditions: route subcutaneous. The series is classed as functional.
The test system of series [2] is Plasmodium gallinaceum. Nature of the series: Antimalarial activity against sporozoite-induced Plasmodium gallinaceum infected in white leghorn chicken assessed as disease cure from parasite infection at 120 mg/kg, sc administered 72 hrs after infection. It counts as functional, organism-based. Details: dose 120 mg/kg.
Series [3] relates to Plasmodium berghei. Description: Antimalarial activity against Plasmodium berghei infected in mouse assessed as disease cure from parasite infection at 160 mg/kg, sc administered 72 hrs after infection. The series is classed as functional, organism-based. Details: dose 160 mg/kg.
In series [4] the test system is Plasmodium gallinaceum. Description: Antimalarial activity against sporozoite-induced Plasmodium gallinaceum infected in white leghorn chicken assessed as disease cure from parasite infection at 240 mg/kg, sc administered 72 hrs after infection. The series is classed as functional, organism-based. Details: dose 240 mg/kg.
Series [5] concerns Staphylococcus aureus. Description: Antibacterial activity against Staphylococcus aureus UC-96 by gradient plate test. It counts as functional.
Series [6] deals with Plasmodium gallinaceum. Description: Antimalarial activity against sporozoite-induced Plasmodium gallinaceum infected in white leghorn chicken assessed as disease cure from parasite infection at 15 mg/kg, sc administered 72 hrs after infection. The series is classed as functional, organism-based. Details: dose 15 mg/kg.
Series [7] relates to Plasmodium berghei. Nature of the series: Antimalarial activity against Plasmodium berghei infected in mouse assessed as disease cure from parasite infection at 80 mg/kg, sc administered 72 hrs after infection. The series is classed as functional, organism-based. Also noted: dose 80 mg/kg.
Series [8] has as its system Plasmodium berghei. Description: Antimalarial activity against Plasmodium berghei infected in mouse assessed as increase in mean survival days of host at 10 mg/kg, sc administered 72 hrs after infection relative to control. The series is classed as functional. The settings on record: route subcutaneous.
The test system of series [9] is Plasmodium berghei. Nature of the series: Antimalarial activity against Plasmodium berghei infected in mouse assessed as increase in mean survival days of host at 20 mg/kg, sc administered 72 hrs after infection relative to control. The series is classed as functional. The settings on record: route subcutaneous.
Series [10] concerns Plasmodium gallinaceum. Description: Antimalarial activity against sporozoite-induced Plasmodium gallinaceum infected in white leghorn chicken assessed as disease cure from parasite infection at 60 mg/kg, sc administered 72 hrs after infection. It counts as functional, organism-based. Details: dose 60 mg/kg.
For series [11], the system named is Gallus gallus. Nature of the series: Toxicity in sporozoite-induced Plasmodium gallinaceum infected white leghorn chicken assessed as mortality at 60 mg/kg, sc administered 72 hrs after infection measured up to 6 days. The series is classed as organism-based. Details: dose 60 mg/kg, route subcutaneous. As to conditions: in vivo.
For series [12], the system named is Plasmodium berghei. Description: Antimalarial activity against Plasmodium berghei infected in mouse assessed as increase in mean survival days of host at 40 mg/kg, sc administered 72 hrs after infection relative to control. The series is classed as functional. The settings on record: route subcutaneous.
Series [13] relates to Enterococcus faecalis. Description: Antibacterial activity against Streptococcus faecalis MGH-2 by gradient plate test. The series is classed as functional.
Series [14] deals with Plasmodium gallinaceum. Description: Antimalarial activity against sporozoite-induced Plasmodium gallinaceum infected in white leghorn chicken assessed as disease cure from parasite infection at 480 mg/kg, sc administered 72 hrs after infection. It counts as functional, organism-based. Also noted: dose 480 mg/kg.
Series [15] has as its system Gallus gallus. Nature of the series: Toxicity in sporozoite-induced Plasmodium gallinaceum infected white leghorn chicken assessed as mortality at 30 mg/kg, sc administered 72 hrs after infection measured up to 6 days. It counts as organism-based. Also noted: dose 30 mg/kg, route subcutaneous. As to conditions: in vivo.
Series [16] deals with Plasmodium berghei. Description: Antimalarial activity against Plasmodium berghei infected in mouse assessed as disease cure from parasite infection at 640 mg/kg, sc administered 72 hrs after infection. The series is classed as functional, organism-based. Also noted: dose 640 mg/kg.
For series [17], the system named is Gallus gallus. Nature of the series: Toxicity in sporozoite-induced Plasmodium gallinaceum infected white leghorn chicken assessed as mortality at 240 mg/kg, sc administered 72 hrs after infection measured up to 6 days. It counts as organism-based. Also noted: dose 240 mg/kg, route subcutaneous. The settings on record: in vivo.
Series [18] relates to Staphylococcus aureus. Description: Antibacterial activity against drug-resistant Staphylococcus aureus S18713 by gradient plate test. The series is classed as functional.
Series [19] relates to Gallus gallus. Nature of the series: Toxicity in sporozoite-induced Plasmodium gallinaceum infected white leghorn chicken assessed as mortality at 15 mg/kg, sc administered 72 hrs after infection measured up to 6 days. It counts as organism-based. Also noted: dose 15 mg/kg, route subcutaneous. The settings on record: in vivo.
Series [20] relates to Gallus gallus. Nature of the series: Toxicity in sporozoite-induced Plasmodium gallinaceum infected white leghorn chicken assessed as mortality at 480 mg/kg, sc administered 72 hrs after infection measured up to 6 days. The settings on record: in vivo. The series is classed as organism-based. Also noted: dose 480 mg/kg, route subcutaneous.
The test system of series [21] is Gallus gallus. Nature of the series: Toxicity in sporozoite-induced Plasmodium gallinaceum infected white leghorn chicken assessed as mortality at 120 mg/kg, sc administered 72 hrs after infection measured up to 6 days. Details: dose 120 mg/kg, route subcutaneous. The settings on record: in vivo. It counts as organism-based.
Series [22] deals with Shigella sonnei. Nature of the series: Antibacterial activity against Shigella sonnei C-10 by gradient plate test. The series is classed as functional.
Series [23] deals with Plasmodium berghei. Description: Antimalarial activity against Plasmodium berghei infected in mouse assessed as disease cure from parasite infection at 320 mg/kg, sc administered 72 hrs after infection. The series is classed as functional, organism-based. Details: dose 320 mg/kg.
Series [24] concerns Escherichia coli. Nature of the series: Antibacterial activity against Escherichia coli Vogel by gradient plate test. It counts as functional.
Series [25] relates to Mycobacterium tuberculosis. Nature of the series: Antibacterial activity against Mycobacterium tuberculosis H37Ra by gradient plate test. It counts as functional.
The subject of series [26] is Pseudomonas aeruginosa. Nature of the series: Antibacterial activity against Pseudomonas aeruginosa 28 by gradient plate test. The series is classed as functional.
Series [27] relates to Plasmodium gallinaceum. Nature of the series: Antimalarial activity against sporozoite-induced Plasmodium gallinaceum infected in white leghorn chicken assessed as disease cure from parasite infection at 30 mg/kg, sc administered 72 hrs after infection. The series is classed as functional, organism-based. Details: dose 30 mg/kg.
In series [28] the test system is Plasmodium gallinaceum. Nature of the series: Antimalarial activity against sporozoite-induced Plasmodium gallinaceum infected in white leghorn chicken assessed as increase in mean survival days of host at 120 mg/kg, sc administered 72 hrs after infection relative to control. The series is classed as functional. As to conditions: route subcutaneous.
The subject of series [29] is Plasmodium gallinaceum. Nature of the series: Antimalarial activity against sporozoite-induced Plasmodium gallinaceum infected in white leghorn chicken assessed as increase in mean survival days of host at 60 mg/kg, sc administered 72 hrs after infection relative to control. As to conditions: route subcutaneous. It counts as functional.
In series [30] the test system is Plasmodium gallinaceum. Description: Antimalarial activity against sporozoite-induced Plasmodium gallinaceum infected in white leghorn chicken assessed as increase in mean survival days of host at 30 mg/kg, sc administered 72 hrs after infection relative to control. It counts as functional. As to conditions: route subcutaneous.
For series [31], the system named is Plasmodium berghei. Nature of the series: Antimalarial activity against Plasmodium berghei infected in mouse assessed as increase in mean survival days of host at 160 mg/kg, sc administered 72 hrs after infection relative to control. It counts as functional. As to conditions: route subcutaneous.
Series [32] has as its system Plasmodium gallinaceum. Nature of the series: Antimalarial activity against sporozoite-induced Plasmodium gallinaceum infected in white leghorn chicken assessed as increase in mean survival days of host at 7.5 mg/kg, sc administered 72 hrs after infection relative to control. The series is classed as functional. As to conditions: route subcutaneous.
Series [33] relates to Plasmodium berghei. Nature of the series: Ratio of quinine hydrochloride SD90 to compound SD90 for trophozoite-induced Plasmodium berghei infected in mouse assessed as daily dose required to suppression of 90% parasite infection administered with diet for 6 days. The series is classed as functional.
Series [34] deals with Plasmodium gallinaceum. Description: Antimalarial activity against sporozoite-induced Plasmodium gallinaceum infected in white leghorn chicken assessed as increase in mean survival days of host at 240 mg/kg, sc administered 72 hrs after infection relative to control. The series is classed as functional. The settings on record: route subcutaneous.
The subject of series [35] is Plasmodium gallinaceum. Nature of the series: Antimalarial activity against sporozoite-induced Plasmodium gallinaceum infected in white leghorn chicken assessed as increase in mean survival days of host at 15 mg/kg, sc administered 72 hrs after infection relative to control. It counts as functional. As to conditions: route subcutaneous.
Series [36] concerns Plasmodium berghei. Description: Antimalarial activity against trophozoite-induced Plasmodium berghei infected in mouse assessed as daily dose required to suppression of 90% parasite infection administered with diet for 6 days. The series is classed as functional.

SMILES strings stand for the structures. Converted amounts (≈) assume the structure as drawn. The source made the active and inactive calls. The rule behind the calls is not given here.

Take `Cc1cc(Sc2ccc3nc(N)nc(N)c3c2)ccc1Br`: the MST in [1] came out at 11.9 days; in series [8], 1.9 days; in series [9], 3.5 days; in [12], 7.7 days. Moreover, the outcome in series [2], in series [3], in series [4], in series [6], in series [7] and in series [10] was Active. For the same compound, the outcome in series [14], in series [16], in series [23] and in [27] was Active. In addition, the minimal inhibitory concentration (MIC) – broadly, the lowest concentration found to suppress growth – is 5 µg/mL (≈ 13.8 µM) in [5]; 10 µg/mL (≈ 27.7 µM) in series [13]; 10 µg/mL (≈ 27.7 µM) in [18]; 20 µg/mL (≈ 55.4 µM) in series [22]; 20 µg/mL (≈ 55.4 µM) in [24]; above 25 µg/mL in series [25]. In series [26], this compound had an MIC above 25 µg/mL. The Activity entry in [11], in series [15], in series [17], in series [19], in series [20] and in series [21] was “Toxic” each time.

On to `CC(=O)O.Nc1nc(N)c2cc(NCc3ccc(Cl)c(Cl)c3)ccc2n1`, for which the MST in series [1] turned out to be 12.9 days; in series [28], 0 days; in series [29] it was 0 days; in series [30] it was 0 days; in series [31], 9.9 days; in series [32] it was 2.3 days. For the same compound, the MST in [34] is 0 days; in series [35] it was 3.1 days; in [8], 0.7 days; in series [9] it was 2.5 days; in [12], 7.1 days. Besides, in [33], the Ratio stood at 7.9. Besides, the SD90 in [36] stood at 9.5 mg/kg/day. In addition, the Activity result in [20] is recorded as “Toxic”.
